{
  "source": "paper PMC9780888",
  "about": "“4-Isobutylmethcathinone—A Novel Synthetic Cathinone with High In Vitro Cytotoxicity and Strong Receptor Binding Preference of Enantiomers” (Pharmaceuticals, 2022)",
  "system": "CaCo-2 cells",
  "test": "Fluorescence microscopy of cell morphology, CaCo-2",
  "assay_type": "cell-based, human",
  "settings": "CaCo-2, 24-h treatment, 100, 300 and 500 µM tested; cells smaller, roundish, in clusters",
  "from_the_text": "In addition to the evaluation of IBMcat cytotoxicity in various cell lines, its impact on cell morphology was also examined in CaCo-2 and MRC-5 cells after 24-h treatment. F-actin and cell nuclei were visualized in these cells treated with 100, 300, and 500-µM concentrations of IBMcat and its enantiomers. IBMcat (Figure 7) induced a considerable change in CaCo-2 cell morphology already from 300-µM concentration, the cells were smaller, bore roundish shapes, and grew in clusters when compared to control untreated cells. This could be ascribed to the substantial toxicity of IBMcat manifested already after 24 h at this concentration. No difference was observed between the individual enantiomers.\nA total of 1 × 10^5 CaCo-2 and MRC-5 cells were seeded into 35-mm glass-bottom dishes for live-cell imaging ((#1.5, MatTek, USA; Ibidi dishes, Germany). After 16 h, the cells were gently washed with phosphate-buffered saline (PBS; pH 7.4), and then, cultivation media containing 100–500 µM IBMCat was added. Untreated cells and cells treated with the vehicle served as controls. After 24 h of the cell incubation with IBMCat, the cells were gently washed with PBS and then fixed with a 4% solution of formaldehyde (methanol-free, Thermo Fisher, USA) in PBS for 20 min. at 22 °C in the dark. Then, the fixative was discarded, and the cells were washed twice with PBS. […]",
  "data": [
    {"smiles": "CNC(C)C(=O)c1ccc(CC(C)C)cc1.Cl", "note": "(stereo not shown) [IBMcat, 4-isobutylmethcathinone hydrochloride]", "values": [
      {"measurement": "concentration from which a considerable change in cell morphology was induced", "result": "≥ 300", "unit": "µM"}
    ]}
  ]
}
